Data from patent EP0574185B1, “PGE1 analogs” (NEWPHARMA INTERNATIONAL CORPORATION, priority 1992, dated 1993).
Where two headings read alike, the source gives them in different places.

How the values were obtained:
[1] = system: rat uterus under estrous condition; assay: C1: effect on PGF2α induced in vitro contraction of rat uterus under estrous condition; conditions: PGF2α 10^-8 M, nutrient solution 0,84
Protocol: The experimental conditions were identical to those described in part A for the concentration-response curves without spontaneous contractions.
The uterus was allowed to equilibrate in a 10^-8 M PGF2α solution for 2 minutes, then the uterus was washed again during 15 minutes. This whole treatment was repeated twice.
(§1) Then, a known concentration of the test prostaglandin was added and no washing was carried out during the following 15 minutes. PGF2α (10^-8 M) was added, washing once after 2 minutes and then twice over a total time period of 15 minutes. The result was expressed as the relationship between the effect of PGF2α after the treatment with B-407 and the sum of the effect of PGF2α (mean of the three initial additions) and the effect of B-407 "per se". The recordings of the contractions and their quantitation were performed as described in (A).
* p < 0.05: Tested vs. nutrient solution by ANOVA and Scheffe. ** p < 0.02: Tested vs. nutrient solution by Student's-t-test. Ratio = Effect of PGF2α after B-407/(Effect of PG F2α before B-407 + Effect of B-407). S.E. = Standard Error
The frequency and magnitude of the responses were globally evaluated by calculating the total area recorded at a fixed time period as will be further explained. The areas under the curve of the recording paper, over 15 minutes periods, were cut and weighed both in the concentration-response curves and in the potentiating experiments.
The calibration was made by weighing a piece of paper which corresponded to a tension of 1 g at the working sensitivity along 2 minutes. Therefore, a relationship of area expressed in g/2 min was obtained and then the weights of the areas of the responses were transformed to unities of area. The results were expressed as the mean ± the standard error of the areas obtained. The statistical evaluation of the differences was carried out either by ANOVA or by Student's-t-test, as appropriate.

[2] = system: rat uterus under diestrous condition; assay: C2: effect on PGF2α induced in vitro contraction of rat uterus under diestrous condition; conditions: B-407 1x10^-8 M; PGF2α 10^-9M; nutrient solution 1,04; p < 0.02
Protocol: as §1
The experimental conditions were identical to those described in B2 and the working protocol was similar to that of C1 but the PGF2α concentration was of 10^-9M. The recordings of the contractions and their quantitation were performed as described in (A).
* p < 0.05: Tested vs. nutrient solution by ANOVA and Scheffe. ** p < 0.02: Tested vs. nutrient solution by Student's-t-test. Ratio = Effect of PGF2α after B-407/(Effect of PG F2α before B-407 + Effect of B-407). […]
The frequency and magnitude of the responses were globally evaluated by calculating the total area recorded at a fixed time period as will be further explained. […]
The calibration was made by weighing a piece of paper which corresponded to a tension of 1 g at the working sensitivity along 2 minutes. […] The results were expressed as the mean ± the standard error of the areas obtained. […]

guinea pigs = assay: Histamine-aerosol induced bronchoconstriction in guinea pig; format: in vivo; conditions: 150 µg/kg, i.p., 5 minutes before histamine challenge; n= 8; initial 115 ± 6, final 127 ± 4
Protocol: The protective effect of B-407 on the bronchoconstriction induced by histamine aerosol in male guinea pigs weighing 700 g was evaluated. One guinea pig at a time was placed into a 15 l hermetically closed container. Then 200 µl of histamine solution (600 µg of histamine base) was sprayed with compressed air at a pressure of 1 PSI. The time at which the hypoxic symptoms (increase of breathing frequency, bronchospasm, dysnea, apnea and finally the collapse of the animal (falling down) was determined.
The working protocol comprised 3 parts: • 1) The determination of the falling down time of the guinea pigs exposed to the histamine aerosol was determined.
The results were expressed as the time in seconds elapsed before the animals fell down ["Antihistamine Agents" (Cap. 22) in: "Screening Methods in Pharmacology". Academic Press, New York (1965). Brit. J. Pharmacology. 16, 59 (1961); Arch. Intern. Pharmacodyn. 129, 77 (1960); J. Pharmacol. Exptl. Therap. 131, 73 (1961); Arch. Intern. Pharmacodyn. 115, 332 (1958); "Les Antihistaminiques de Synthése", Chapter 22, page 784 in : "Structure et activité pharmacodynamique de medicaments du systéme nerveux vegetatif". S. Karger Bale (Suisse)- New York: (1948)].

Beagle dogs = assay: Volume and acidity of histamine stimulated gastric secretion in dogs (gastric fistula); format: in vivo
Protocol: Healthy adult Beagle dogs weighing 10 kg to 13 kg were used.
The basal response of each dog to histamine, as represented by volume of gastric secretion and acid concentration, was carried out six times. For this purpose the dogs were placed in a Pavlov support and plastic bottles were connected to a Thomas type gastric fistula after cleaning it when necessary.
Saline i.v. infusion was started by means of a Butterfly G 21 (Abbott) needle connected to a 500 ml bottle of sterile pyrogen free isotonic saline solution through an inert plastic cannula. The solution dripping was adjusted to 1 ml/min.
The volume of gastric secretion obtained from fifteen minutes collection periods, expressed as ml/15 min, was determined. Aliquots of 5 ml were kept in the freezer to perform acid titration on the next day. The first three collection periods were considered as the actual basal gastric secretion for each dog in the absence of any drug. Then the bottle of saline was changed for a solution of histamine. 2HCl at a concentration of […] in saline. The dripping was adjusted to 20 drops per minute (984 µg histamine/hour) After the plateau of augmented gastric secretion was reached, B-407 was administered.
Acid concentration, expressed as mEq H+/l was determined by titration with sodium hydroxide.

[3] = Canis lupus familiaris, iv, read-out: VOLUME % Inhib.

CCCCC(C)(O)C/C=C/[C@H]1[C@H](O)CC(=O)[C@@H]1CCCC/C=C/C(=O)OC (mixture of isomers) [B-407, trans-Δ^2-15-deoxy-16-hydroxy-16-methyl PGE1 methyl ester]
Ratio = Effect of PGF2α after B-407/(Effect of PG F2α before B-407 + Effect of B-407) ([1]; B-407 3x10^-7 M, p < 0.05): 2,06
Ratio = Effect of PGF2α after B-407/(Effect of PG F2α before B-407 + Effect of B-407) ([1]; B-407 3x10^-8 M): 1,69
Ratio = Effect of PGF2α after B-407/(Effect of PG F2α before B-407 + Effect of B-407) ([1]; B-407 3x10^-9 M): 1,29
Ratio = Effect of PGF2α after B-407/(Effect of PG F2α before B-407 + Effect of B-407) [2]: 2,35
Falling down time (sec) by bronchospasm (guinea pigs): 358 ± 4 s
inhibition at 0.003 mg/kg (Beagle dogs; Canis lupus familiaris, iv, read-out: ACIDITY % Inhib): 59.7%
inhibition at 0.001 mg/kg (Beagle dogs; [3]): 15.2%
inhibition at 0.003 mg/kg (Beagle dogs; [3]): 93.7%
ACIDITY % Inhib (Beagle dogs; i.g. 10 µg/kg): 42,5%
VOLUME % Inhib. (Beagle dogs; i.g. 10 µg/kg): 24,3%
VOLUME Max.eff. B-407 (Beagle dogs; i.g. 10 µg/kg, histamine plateau 42,0±3,6): 31,8±6,2 ml/15min
ACIDITY Max.Eff. B-407 (Beagle dogs; i.g. 10 µg/kg, histamine plateau 122,4±9,7): 70,4±11,8 mEq.H^+/l
ACIDITY % Inhib (Beagle dogs; i.g. 30 µg/kg): 31,8%
VOLUME % Inhib. (Beagle dogs; i.g. 30 µg/kg): 36,3%
VOLUME Max.eff. B-407 (Beagle dogs; i.g. 30 µg/kg, histamine plateau 38,3±2,6): 24,4±3,1 ml/15min
ACIDITY Max.Eff. B-407 (Beagle dogs; i.g. 30 µg/kg, histamine plateau 143,4±3,2): 97,8±13,2 mEq.H^+/l
VOLUME Max.eff. B-407 (Beagle dogs; i.v. 1 µg/kg, histamine plateau 39,5±3,4): 33,5±3,6 ml/15min
VOLUME Max.eff. B-407 (Beagle dogs; i.v. 3 µg/kg, histamine plateau 43,2±4,6): 2,7±1,3 ml/15min
ACIDITY Max.Eff. B-407 (Beagle dogs; i.v. 3 µg/kg, histamine plateau 145,3±3,0): 58,5±16,0 mEq.H^+/l
VOLUME % Inhib. (Beagle dogs; i.vag 10 µg/kg (n=3)): 100,0%
VOLUME Max.eff. B-407 (Beagle dogs; i.vag 10 µg/kg (n=3), histamine plateau 43,0±2,0): 0,0 ml/15min
ACIDITY % Inhib (Beagle dogs; i.vag 30 µg/kg (n=2)): 67,3%
VOLUME % Inhib. (Beagle dogs; i.vag 30 µg/kg (n=2)): 93,8%
VOLUME Max.eff. B-407 (Beagle dogs; i.vag 30 µg/kg (n=2), histamine plateau 38,5±8,5): 2,4±1,7 ml/15min
ACIDITY Max.Eff. B-407 (Beagle dogs; i.vag 30 µg/kg (n=2), histamine plateau 118,9±4,3): 38,9±19,9 mEq.H^+/l
ACIDITY % Inhib (Beagle dogs; i.vag. 1 µg/kg): 24,4%
VOLUME % Inhib. (Beagle dogs; i.vag. 1 µg/kg): 30,5%
VOLUME Max.eff. B-407 (Beagle dogs; i.vag. 1 µg/kg, histamine plateau 50,8±2,4): 35,3±5,3 ml/15min
ACIDITY Max.Eff. B-407 (Beagle dogs; i.vag. 1 µg/kg, histamine plateau 134,2±6,4): 101,4±13,3 mEq.H^+/l
ACIDITY % Inhib (Beagle dogs; i.vag. 3 µg/kg): 71,5%
VOLUME % Inhib. (Beagle dogs; i.vag. 3 µg/kg): 98,4%
VOLUME Max.eff. B-407 (Beagle dogs; i.vag. 3 µg/kg, histamine plateau 49,1±2,5): 0,8±0,4 ml/15min
ACIDITY Max.Eff. B-407 (Beagle dogs; i.vag. 3 µg/kg, histamine plateau 132,6±8,7): 37,8±12,7 mEq.H^+/l
